This passage reports IC50 results from patent publication US20240109900A1, “AZABICYCLIC SHP2 INHIBITORS” (IRBM S.P.A., priority 2021, published 2024).

Structures are written as SMILES. Where two headings read alike, the source gives them in different places.

For experiment [1], the target named is SHP-2 enzyme (Met1-Leu525) (Homo sapiens (Human), UniProt Q06124). Put plainly: SHP2 inhibition enzymatic assay. Format: biochemical. The following applies: read-out: SHP2wt-IC50. The method, boiled down:
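SHP-2 (Met1-Leu525), 0.5 nM, activated with 500 nM IRS1 bis-phosphopeptide, preincubated 30 min with compounds in HEPES pH 7.2 buffer with 5 mM DTT. 75 μM DiFMUP added for 30 min at room temperature, stopped with bpV; fluorescence read. IC50 from four-parameter logistic fit of % inhibition.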

In experiment [2] the test system is ERK phosphorylation in KYSE-520 cells. The experiment in a line: Phospho-ERK cellular assay. The following applies: KYSE-520 cells, 2 h at 37° C., phospho-ERK1/2 (Thr202/Tyr204) TR-FRET, read-out: PERK IC50. Format: cell-based. The method, boiled down:
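TR-FRET read-out of ERK1/2 Thr202/Tyr204 phosphorylation was taken after overnight antibody incubation at room temperature. Before that, KYSE-520 cells were treated 2 h at 37 °C with compound dilutions and lysed 30 min. Percent inhibition relative to vehicle and cell-free wells was fitted four-parametrically to give IC50.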

The mark [3] stands for this setting: 0.5 nM SHP-2 activated by 500 nM IRS1 peptide, 75 μM DiFMUP substrate.

Sequence of SHP-2 enzyme (Met1-Leu525) (Q06124 1-525): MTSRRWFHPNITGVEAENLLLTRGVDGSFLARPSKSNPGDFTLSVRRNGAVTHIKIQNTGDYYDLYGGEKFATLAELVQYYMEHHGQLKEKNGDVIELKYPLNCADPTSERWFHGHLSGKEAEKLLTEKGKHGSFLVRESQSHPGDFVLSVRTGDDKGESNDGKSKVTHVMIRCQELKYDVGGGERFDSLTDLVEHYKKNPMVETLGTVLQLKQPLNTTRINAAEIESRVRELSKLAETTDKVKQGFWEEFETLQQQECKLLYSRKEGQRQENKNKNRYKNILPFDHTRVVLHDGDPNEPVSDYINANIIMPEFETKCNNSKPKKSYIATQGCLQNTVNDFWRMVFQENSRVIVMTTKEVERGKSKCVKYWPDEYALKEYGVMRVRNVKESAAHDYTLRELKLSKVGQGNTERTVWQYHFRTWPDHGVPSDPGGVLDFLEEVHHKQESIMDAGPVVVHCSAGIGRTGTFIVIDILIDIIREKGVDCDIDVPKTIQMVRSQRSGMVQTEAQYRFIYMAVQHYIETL

For `COc1cnc2ccc(-c3n[nH]c4nc(N5CC[C@@H]6[C@H](C5)[C@@]6(CN)c5cc(C)on5)cnc34)c(Cl)c2n1` [Example 112, ((1S,6R,7S)-3-(3-(5-chloro-3-methoxyquinoxalin-6-yl)-1H-pyrazolo[3,4-b]pyrazin-6-yl)-7-(5-methylisoxazol-3-yl)-3-azabicyclo[4.1.0]heptan-7-yl)methanamine], the 50% inhibitory concentration (IC50) in experiment [1] (setting [3]) is less than 500 nM; in experiment [2] (Homo sapiens, KYSE-520, 2 h), less than 1000 nM.

Regarding `NCC1(c2nc(Cl)cs2)C2CCN(c3cnc4c(-c5ccc(F)c6ncccc56)n[nH]c4n3)CC21` (stereo not drawn) [Example 446, (7-(4-chlorothiazol-2-yl)-3-(3-(8-fluoroquinolin-5-yl)-1H-pyrazolo[3,4-b]pyrazin-6-yl)-3-azabicyclo[4.1.0]heptan-7-yl)methanamine], the IC50 was less than 500 nM in experiment [1] (setting [3]) and less than 1000 nM in experiment [2] (Homo sapiens, KYSE-520, 2 h).

For `NC[C@]1(c2ccccc2F)[C@@H]2CCN(c3cnc4c(-c5ccc6ncncc6c5)n[nH]c4n3)C[C@@H]21` [Example 290, ((1S,6R,7R)-7-(2-fluorophenyl)-3-(3-(quinazolin-6-yl)-1H-pyrazolo[3,4-b]pyrazin-6-yl)-3-azabicyclo[4.1.0]heptan-7-yl)methanamine], the half-inhibitory concentration (IC50) in experiment [1] (setting [3]) is less than 500 nM; in experiment [2] (Homo sapiens, KYSE-520, 2 h) it was less than 1000 nM.

For `Cc1csc(C2(CN)C3CCN(c4ncc(Sc5ccnc(N)c5Cl)c5nccn45)CC32)n1` (stereo not drawn) [Example 76, 4-((5-(7-(aminomethyl)-7-(4-methylthiazol-2-yl)-3-azabicyclo[4.1.0]heptan-3-yl)imidazo[1,2-c]pyrimidin-8-yl)thio)-3-chloropyridin-2-amine], the figures for the half-maximal inhibitory concentration (IC50) in experiment [1] and in experiment [2] (Homo sapiens) were less than 500 nM and greater than 5000 nM, respectively.

As to `NC[C@]1(c2ccccc2F)[C@@H]2CCN(c3cnc4c(Sc5ccnc(N)c5Cl)n[nH]c4n3)C[C@@H]21` [Example 397, 4-((6-((1S,6R,7R)-7-(aminomethyl)-7-(2-fluorophenyl)-3-azabicyclo[4.1.0]heptan-3-yl)-1H-pyrazolo[3,4-b]pyrazin-3-yl)thio)-3-chloropyridin-2-amine], the IC50 in experiment [1] (setting [3]) was less than 500 nM; in experiment [2] (Homo sapiens, KYSE-520, 2 h) it was less than 1000 nM.

With `NCC1(c2ccccc2)C2CCN(c3nc4nc(Sc5cccnc5C(F)(F)F)cnc4[nH]3)CC21` (stereo not drawn) [Example 63, (7-phenyl-3-(5-((2-(trifluoromethyl)pyridin-3-yl)thio)-1H-imidazo[4,5-b]pyrazin-2-yl)-3-azabicyclo[4.1.0]heptan-7-yl)methanamine], the IC50 in experiment [1] was less than 500 nM; in experiment [2] (Homo sapiens) it was 1000 to 5000 nM.

For `Cc1cc(C2(CN)C3CCN(c4cnc5c(-c6ccnc(Cl)c6Cl)n[nH]c5n4)CC32)no1` (stereo not drawn) [Example 31, (3-(3-(2,3-dichloropyridin-4-yl)-1H-pyrazolo[3,4-b]pyrazin-6-yl)-7-(5-methylisoxazol-3-yl)-3-azabicyclo[4.1.0]heptan-7-yl)methanamine], the IC50 in experiment [1] (setting [3]) is less than 500 nM; in experiment [2] (Homo sapiens, KYSE-520, 2 h), less than 1000 nM.

Consider `NC[C@]1(c2ccccc2F)[C@@H]2CCN(c3cnc4c(-c5ccnc(-n6cccc6)c5Cl)n[nH]c4n3)C[C@@H]21` [Example 522, ((1S,6R,7R)-3-(3-(3-chloro-2-(1H-pyrrol-1-yl)pyridin-4-yl)-1H-pyrazolo[3,4-b]pyrazin-6-yl)-7-(2-fluorophenyl)-3-azabicyclo[4.1.0]heptan-7-yl)methanamine], for which the IC50 in experiment [1] (setting [3]) is less than 500 nM; in experiment [2] (Homo sapiens, KYSE-520, 2 h) it was less than 1000 nM.

`NC[C@]1(c2ccccc2F)[C@@H]2CCN(c3cnc4c(-c5cccc(Br)c5Cl)n[nH]c4n3)C[C@@H]21` [Example 162, ((1S,6R,7R)-3-(3-(3-bromo-2-chlorophenyl)-1H-pyrazolo[3,4-b]pyrazin-6-yl)-7-(2-fluorophenyl)-3-azabicyclo[4.1.0]heptan-7-yl)methanamine]: the half-inhibitory concentration (IC50) in experiment [1] (setting [3]) was less than 500 nM; in experiment [2] (Homo sapiens, KYSE-520, 2 h) it was less than 1000 nM.

On to `Cc1cc(C2(CN)C3CCN(c4cnc5c(-c6ccc(Cl)c7cnccc67)n[nH]c5n4)CC32)no1` (stereo not drawn) [Example 34, (3-(3-(8-chloroisoquinolin-5-yl)-1H-pyrazolo[3,4-b]pyrazin-6-yl)-7-(5-methylisoxazol-3-yl)-3-azabicyclo[4.1.0]heptan-7-yl)methanamine], for which the concentration for half-maximal inhibition (IC50) was less than 500 nM in experiment [1] (setting [3]) and less than 1000 nM in experiment [2] (Homo sapiens, KYSE-520, 2 h).

With `Cc1csc([C@@]2(CN)[C@@H]3CN(c4cnc5c(-c6cccc(Cl)c6Cl)n[nH]c5n4)CC[C@@H]32)n1` [Example 437, ((1R,6S,7R)-3-(3-(2,3-dichlorophenyl)-1H-pyrazolo[3,4-b]pyrazin-6-yl)-7-(4-methylthiazol-2-yl)-3-azabicyclo[4.1.0]heptan-7-yl)methanamine], the IC50 in experiment [1] (setting [3]) was less than 500 nM; in experiment [2] (Homo sapiens, KYSE-520, 2 h) it was 1000 to 5000 nM.

Turning to `NC[C@]1(c2ccccc2F)[C@@H]2CCN(c3nccn4c(-c5cccc(Cl)c5Cl)ncc34)C[C@@H]21` [Example 416, ((1S,6R,7R)-3-(3-(2,3-dichlorophenyl)imidazo[1,5-a]pyrazin-8-yl)-7-(2-fluorophenyl)-3-azabicyclo[4.1.0]heptan-7-yl)methanamine], the half-inhibitory concentration (IC50) in experiment [1] (setting [3]) is less than 500 nM; in experiment [2] (Homo sapiens, KYSE-520, 2 h), greater than 5000 nM.

As for `NC[C@]1(c2ccccc2F)[C@@H]2CCN(c3cnc4c(-c5cc(F)c(O)c(F)c5)n[nH]c4n3)C[C@@H]21` [Example 322, 4-(6-((1S,6R,7R)-7-(aminomethyl)-7-(2-fluorophenyl)-3-azabicyclo[4.1.0]heptan-3-yl)-1H-pyrazolo[3,4-b]pyrazin-3-yl)-2,6-difluorophenol], the concentration for half-maximal inhibition (IC50) in experiment [1] (setting [3]) is less than 500 nM; in experiment [2] (Homo sapiens, KYSE-520, 2 h), less than 1000 nM.

Take `Cc1cc([C@@]2(CN)[C@@H]3CCN(c4cnc5c(-c6ccc7nn(C)cc7c6Cl)n[nH]c5n4)C[C@@H]32)no1` [Example 46, ((1S,6R,7S)-3-(3-(4-chloro-2-methyl-2H-indazol-5-yl)-1H-pyrazolo[3,4-b]pyrazin-6-yl)-7-(5-methylisoxazol-3-yl)-3-azabicyclo[4.1.0]heptan-7-yl)methanamine]: the IC50 in experiment [1] (setting [3]) is less than 500 nM; in experiment [2] (Homo sapiens, KYSE-520, 2 h), less than 1000 nM.

With `NC[C@]1(c2ccccc2F)[C@@H]2CCN(c3cnc4c(N5CC6(CCC6)c6ncccc65)n[nH]c4n3)C[C@@H]21` [Example 270, ((1S,6R,7R)-7-(2-fluorophenyl)-3-(3-(spiro[cyclobutane-1,3′-pyrrolo[3,2-b]pyridin]-1′(2′H)-yl)-1H-pyrazolo[3,4-b]pyrazin-6-yl)-3-azabicyclo[4.1.0]heptan-7-yl)methanamine], the concentration for half-maximal inhibition (IC50) in experiment [1] (setting [3]) was less than 500 nM; in experiment [2] (Homo sapiens, KYSE-520, 2 h) it was less than 1000 nM.

On to `Cc1cc(C2(CN)C3CCN(c4cnc5c(-c6cccc(Cl)c6Cl)n[nH]c5n4)CC32)no1` (stereo not drawn) [Example 8, (3-(3-(2,3-dichlorophenyl)-1H-pyrazolo[3,4-b]pyrazin-6-yl)-7-(5-methylisoxazol-3-yl)-3-azabicyclo[4.1.0]heptan-7-yl)methanamine], for which the IC50 is less than 500 nM in experiment [1] (setting [3]) and less than 1000 nM in experiment [2] (Homo sapiens, KYSE-520, 2 h).

Turning to `NC[C@]1(c2ccccc2F)[C@@H]2CCN(c3cnc4c(-c5ccc6c(c5Cl)NCCO6)n[nH]c4n3)C[C@@H]21` [Example 311], the IC50 in experiment [1] (setting [3]) is less than 500 nM; in experiment [2], less than 1000 nM.

For the compound `Cn1cc2c(Cl)c(-c3n[nH]c4nc(N5CCC6C(C5)C6(CN)c5cc(CO)on5)cnc34)ccc2n1` (stereo not drawn) [Example 61, (3-(7-(aminomethyl)-3-(3-(4-chloro-2-methyl-2H-indazol-5-yl)-1H-pyrazolo[3,4-b]pyrazin-6-yl)-3-azabicyclo[4.1.0]heptan-7-yl)isoxazol-5-yl)methanol], the IC50 is less than 500 nM in experiment [1] (setting [3]) and less than 1000 nM in experiment [2] (Homo sapiens, KYSE-520, 2 h).
